Assay results from paper PMC5775428, “Towards an experimental classification system for membrane active peptides” (Scientific Reports, 2018).
Where two headings read alike, the source gives them in different places.

Key:
[1] = tested on: Bacillus cereus; conditions: Bacillus cereus
Summary of the method: (§1)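 Read-out was optical microscopy, with the MIC taken as the concentration showing no detectable cells. Peptides spanned 0.5 to 256 μM under CLSI M7-A10 conditions for bacteria, in three biological repetitions of duplicate wells.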

[2] = tested on: Bacillus subtilis; conditions: Bacillus subtilis
Summary of the method: as §1

[3] = tested on: Candida albicans; conditions: Candida albicans
Summary of the method: (§2)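 MICs determined per CLSI M7-A10 (bacteria) and M27-A3 (yeasts) protocols, peptides tested at 0.5 to 256 μM. MIC taken as the lowest concentration with no cells seen by optical microscopy; three biological repeats with 2 technical replicates each.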

[4] = tested on: Cryptococcus neoformans; conditions: Cryptococcus neoformans
Summary of the method: as §2

[5] = tested on: Erwinia carotovora; conditions: Erwinia carotovora
Summary of the method: as §1

[6] = tested on: Escherichia coli; conditions: Escherichia coli
Summary of the method: as §1

[7] = tested on: Pseudomonas aeruginosa; conditions: Pseudomonas aeruginosa
Summary of the method: as §1

[8] = tested on: Pseudomonas syringae pv. tabaci; conditions: Pseudomonas syringae pv. tabaci
Summary of the method: as §1

[9] = tested on: Staphylococcus aureus; conditions: Staphylococcus aureus
Summary of the method: as §1

[10] = tested on: Xanthomonas campestris
Summary of the method: as §1

[11] = cited from earlier work
[12] = cited from earlier work; remark: listed apart in the source
[13] = cited from earlier work; remark: listed apart in the source
[14] = cited from earlier work; remark: listed apart in the source
[15] = cited from earlier work; remark: listed apart in the source
[16] = cited from earlier work; remark: listed apart in the source
[17] = cited from earlier work; remark: listed apart in the source
[18] = cited from earlier work; remark: listed apart in the source
[19] = cited from earlier work; remark: listed apart in the source
[20] = cited from earlier work; remark: listed apart in the source

LHRLVKLVAALLRGYASKVDTH [Tc08]
Minimum inhibitory concentration ([1]; CLSI M7-A10, triplicate 1): 4 µM
Minimum inhibitory concentration, Average ([1]; average of triplicates): 6.7 µM
Minimum inhibitory concentration ([1]; triplicate 2): 8 µM
Minimum inhibitory concentration ([1]; triplicate 3): 8 µM
Minimum inhibitory concentration ([2]; CLSI M7-A10, triplicate 1): 2 µM
Minimum inhibitory concentration, Average ([2]; average of triplicates): 2.0 µM
Minimum inhibitory concentration ([2]; triplicate 2): 2 µM
Minimum inhibitory concentration ([2]; triplicate 3): 2 µM
Minimum inhibitory concentration ([3]; CLSI M27-A3, 0.5 to 256 μM tested, triplicate 1, also published in ref 7): 4 µM
Minimum inhibitory concentration, Average ([3]; average of triplicates): 4.0 µM
Minimum inhibitory concentration ([3]; triplicate 2): 4 µM
Minimum inhibitory concentration ([3]; triplicate 3): 4 µM
Minimum inhibitory concentration ([4]; CLSI M27-A3, triplicate 1): 8 µM
Minimum inhibitory concentration, Average ([4]; average of triplicates): 8.0 µM
Minimum inhibitory concentration ([4]; triplicate 2): 8 µM
Minimum inhibitory concentration ([4]; triplicate 3): 8 µM
Minimum inhibitory concentration ([5]; CLSI M7-A10, triplicate 1): 2 µM
Minimum inhibitory concentration, Average ([5]; average of triplicates): 3.3 µM
Minimum inhibitory concentration ([5]; triplicate 2): 4 µM
Minimum inhibitory concentration ([5]; triplicate 3): 4 µM
Minimum inhibitory concentration ([6]; CLSI M7-A10, triplicate 1): 2 µM
Minimum inhibitory concentration, Average ([6]; average of triplicates): 2.0 µM
Minimum inhibitory concentration ([6]; triplicate 2): 2 µM
Minimum inhibitory concentration ([6]; triplicate 3): 2 µM
Minimum inhibitory concentration ([7]; CLSI M7-A10, triplicate 1): 4 µM
Minimum inhibitory concentration, Average ([7]; average of triplicates): 4.0 µM
Minimum inhibitory concentration ([7]; triplicate 2): 4 µM
Minimum inhibitory concentration ([7]; triplicate 3): 4 µM
Minimum inhibitory concentration ([8]; CLSI M7-A10, triplicate 1): 4 µM
Minimum inhibitory concentration, Average ([8]; average of triplicates): 4.0 µM
Minimum inhibitory concentration ([8]; triplicate 2): 4 µM
Minimum inhibitory concentration ([8]; triplicate 3): 4 µM
Minimum inhibitory concentration ([9]; CLSI M7-A10, triplicate 1): 2 µM
Minimum inhibitory concentration, Average ([9]; average of triplicates): 2.0 µM
Minimum inhibitory concentration ([9]; triplicate 2): 2 µM
Minimum inhibitory concentration ([9]; triplicate 3): 2 µM
Minimum inhibitory concentration ([10]; CLSI M7-A10, triplicate 1): 4 µM
Minimum inhibitory concentration, Average ([10]; average of triplicates): 4.0 µM
Minimum inhibitory concentration ([10]; triplicate 2): 4 µM
Minimum inhibitory concentration ([10]; triplicate 3): 4 µM

Penetratin
H broad component, DMPC LUVs [11]: 2890 kcal/mol
Hv broad component, DMPC LUVs [12]: 295000
Hv sharp component, DMPC LUVs [13]: 1.01e+06
Tm broad component, DMPC LUVs [14]: 23.5 °C
Tm sharp component, DMPC LUVs [15]: 24.2 °C
H broad component, 2:1 DMPC:DMPG LUVs [16]: 2560 kcal/mol
H sharp component, 2:1 DMPC:DMPG LUVs [17]: 3360 kcal/mol
Hv broad component, 2:1 DMPC:DMPG LUVs [18]: 116000
Tm broad component, 2:1 DMPC:DMPG LUVs [19]: 26.6 °C
Tm sharp component, 2:1 DMPC:DMPG LUVs [20]: 24.5 °C

Syphaxin
H broad component, DMPC LUVs [11]: 2260 kcal/mol
Hv broad component, DMPC LUVs [12]: 120000
Hv sharp component, DMPC LUVs [13]: 383000
Tm broad component, DMPC LUVs [14]: 25.4 °C
Tm sharp component, DMPC LUVs [15]: 21.9 °C
H broad component, 2:1 DMPC:DMPG LUVs [16]: 3240 kcal/mol
H sharp component, 2:1 DMPC:DMPG LUVs [17]: 197 kcal/mol
Hv broad component, 2:1 DMPC:DMPG LUVs [18]: 101000
Tm broad component, 2:1 DMPC:DMPG LUVs [19]: 25.4 °C
Tm sharp component, 2:1 DMPC:DMPG LUVs [20]: 22.8 °C
